“And” between values parts separate entries of the source, which are not always exact repeats. Equal values may be shown once. “Also recorded” adds a separate entry of the source.
How the values were obtained:
[1] = COSMIC-HF: concentrations of omecamtiv mecarbil in plasma; format: in vivo; conditions: for Maximum Concentration / Predose Concentration: mean (SD)
Protocol: (§1) In this randomized, double-blind study, done at 87 sites in 13 countries, patients with stable, symptomatic chronic heart failure and left ventricular ejection fraction 40% or lower were recruited. Patients were randomly assigned equally, via an interactive web response system, to receive 25 mg oral omecamtiv mecarbil twice daily (fixed-dose group), 25 mg twice daily titrated to 50 mg twice daily guided by pharmacokinetics (pharmacokinetic-titration group), or placebo for 20 weeks. The maximum concentration of omecamtiv mecarbil in plasma (primary endpoint) and changes in cardiac function and ventricular diameters were assessed. This trial is registered with ClinicalTrials.gov, number NCT01786512.
All patients received study treatment or placebo for 20 weeks and were followed up at week 24 after randomization. Patients in the pharmacokinetic-titration group received 25 mg omecamtiv mecarbil twice daily for 2 weeks to reach a steady state. If the trough omecamtiv mecarbil concentration in plasma before the morning dose (predose concentration) at 2 weeks was less than 200 ng/mL, the dose was titrated up to 50 mg twice daily at week 8. If the predose concentration was 200 ng/mL or higher, patients continued taking 25 mg twice daily until the end of the study. To access the pharmacokinetics in this population more rigorously than permitted by just trough sampling, intensive pharmacokinetic sampling was done at the end of weeks 2 and 12, over a period of 8 h on each day.
(§2) The primary endpoint was the maximum concentration of omecamtiv mecarbil at the week 2 and 12 visits and the predose concentration at the week 2, 8, 12, 16, and 20 visits. Secondary endpoints were changes from baseline in systolic ejection time, stroke volume, left ventricular end-systolic and end-diastolic diameters, heart rate, and concentration of NT-proBNP in plasma at week 20. Additional prespecified exploratory echocardiographic endpoints included left ventricular fractional shortening, end-systolic and end-diastolic volumes, and ejection fraction. The clinical events committee adjudicated whether admissions to hospital and deaths and all episodes of myocardial ischaemia or infarction reported by investigators or based on an increase of cardiac troponin I concentration in plasma met the criteria for study endpoints.

patients = conditions: previous work, similar population of patients; cited from earlier work
[2] = system: patients with stable, symptomatic chronic heart failure and left ventricular ejection fraction 40% or lower; assay: COSMIC-HF: changes in cardiac function, ventricular diameters, heart rate and NT-proBNP; format: in vivo, human; conditions: for NT-proBNP concentration in plasma, difference versus placebo: 4 weeks after omecamtiv mecarbil was stopped
Protocol: as §1
(§3) Patients attended study clinics at weeks 2 and 8, after which visits were every 4 weeks until week 24. Transthoracic echocardiograms were done at baseline, week 12, and week 20 and analyzed centrally. Blood samples were obtained at specified visits for analysis in the central laboratory.
as §2
The standard deviations (SDs) for maximum and minimum concentrations of omecamtiv mecarbil in plasma were assumed to be in the range of 40-140 ng/mL.^6-8,11-13 On this basis, it was calculated that 142 patients in the pharmacokinetic-titration group would provide a two-sided 95% CI with half width of 6·6-23·0 ng/mL, assuming that 5% of patients would not have assessable concentrations of omecamtiv mecarbil, which was deemed sufficient for accurate population estimates of these concentrations. Previous work in a similar population of patients had shown that plasma concentrations of omecamtiv mecarbil as low as 100-200 ng/mL had some effect on cardiac function, but that the effect on stroke volume seemed to plateau with concentrations greater than 400 ng/mL, and that plasma concentrations greater than 1200 ng/mL were not clinically tolerated.^7 Thus, it was attempted to achieve a maximum concentration greater than 200 ng/mL and avoid exposures to concentrations greater than 1000 ng/mL. Additionally, with 150 patients in each group and significance set at α=0·05 (two-sided), it was estimated that the statistical power for detecting a treatment effect on the echocardiographic endpoints of systolic ejection time, stroke volume, and left ventricular end-systolic diameter would be more than 90%. Differences between groups for changes in echo cardio graphic variables, heart rate, and NT-proBNP concentrations from baseline were estimated with a repeated measures model fitted separately for each variable and that included the stratification factors of presence or absence of atrial fibrillation or flutter at randomisation, baseline value, treatment group, visit, and treatment group by visit interaction. An unstructured covariance matrix was used to account for the correlation between visits within patients. Least squares mean differences with 95% CIs of the mean relative to placebo are presented unless otherwise indicated. As the study was hypothesis generating, all p values are nominal with no multiplicity adjustment. This study is registered with ClinicalTrials.gov, number NCT01786512.

[3] = system: patients with stable, symptomatic chronic heart failure and left ventricular ejection fraction 40% or lower; assay: COSMIC-HF: safety variables and adverse events; format: in vivo
Protocol: as §1, §3, §2

[4] = Week 2, fixed-dose group (25 mg twice daily)
[5] = Week 12, fixed-dose group (25 mg twice daily)
[6] = Week 12, fixed-dose group (25 mg twice daily), listed as OM
[7] = Week 12, fixed-dose group, of 137 patients with measurements
[8] = Week 12, pharmacokinetic-titration group
[9] = Week 12, pharmacokinetic-titration group, listed as OM
[10] = Week 12, pharmacokinetic-titration group, of 127 patients with measurements
[11] = pharmacokinetic-titration group
[12] = week 20, pharmacokinetic-titration group
[13] = pharmacokinetic-titration OM group (n = 146)

COC(=O)N1CCN(Cc2cccc(NC(=O)Nc3ccc(C)nc3)c2F)CC1 [omecamtiv mecarbil]
Maximum Concentration [1, 4]: 212 (70.4) 33.2% ng/mL | Predose Concentration [1, 4]: 174 (62.2) 35.7% ng/mL | Predose Concentration ([1]; Week 2, pharmacokinetic-titration group (25 mg titrated to 50 mg twice daily)): 179 (68.8) 38.4% ng/mL | Maximum Concentration ([1]; Week 2, pharmacokinetic-titration group): 212 (81.0) 38.2% ng/mL | Predose Concentration ([1]; Week 8, fixed-dose group (25 mg twice daily)): 156 (69.1) 44.2% ng/mL | Predose Concentration ([1]; Week 8, pharmacokinetic-titration group): 161 (74.4) 46.1% ng/mL | Maximum Concentration [1, 5]: 200 (SD 71) ng/mL and 200 (71) ng/mL | Predose Concentration [1, 5]: 165 (SD 68) ng/mL | Maximum Concentration [1, 6]: 200 (71.1) 35.6% ng/mL | Predose Concentration [1, 6]: 165 (67.9) 41.3% ng/mL | Patients with maximum drug concentrations in plasma greater than or equal to 200 ng/mL, % [1, 7]: 46% | Patients with maximum drug concentrations in plasma greater than or equal to 200 ng/mL, number [1, 7]: 63 | Maximum Concentration [1, 8]: 318 (129) ng/mL | Predose Concentration [1, 8]: 263 (116) ng/mL | Maximum Concentration [1, 9]: 318 (129) 40.5% ng/mL | Predose Concentration [1, 9]: 263 (116) 44.1% ng/mL | Patients with maximum drug concentrations in plasma greater than or equal to 200 ng/mL, % [1, 10]: 87% | Patients with maximum drug concentrations in plasma greater than or equal to 200 ng/mL, number [1, 10]: 110 | Predose Concentration ([1]; Week 16, fixed-dose group (25 mg twice daily)): 155 (69.0) 44.6% ng/mL | Predose Concentration ([1]; Week 16, pharmacokinetic-titration group): 240 (120) 50.0% ng/mL | Predose Concentration ([1]; Week 20, fixed-dose group (25 mg twice daily)): 149 (71.2) 47.8% ng/mL | Predose Concentration ([1]; Week 20, pharmacokinetic-titration group): 239 (118) 49.5% ng/mL | Maximum observed concentration in plasma at any time during the study ([1]; fixed-dose group): 453 ng/mL | Maximum observed concentration in plasma at any time during the study [1, 11]: 831 ng/mL | Patients with a maximum concentration greater than 750 ng/mL [1, 11]: one | Plasma concentrations at which the effect on stroke volume seemed to plateau (patients): greater than 400 ng/mL | Plasma concentrations not clinically tolerated (patients): greater than 1200 ng/mL | Plasma concentrations that had some effect on cardiac function (as low as) (patients): 100 to 200 ng/mL | NT-proBNP concentration in plasma, difference versus placebo ([2]; fixed-dose group): -1327 pg/mL | NT-proBNP concentration in plasma, difference versus placebo [2, 11]: -1306 pg/mL | Systolic ejection times, average increases ([2]; chronic oral administration, across both omecamtiv mecarbil groups): 11 to 25 ms | NT-proBNP concentration in plasma, least square mean difference versus placebo ([2]; week 20, fixed-dose group): -822 pg/mL | Stroke volume, least square mean difference versus placebo ([2]; week 20, fixed-dose group): 5 mL | Systolic ejection time, least square mean difference versus placebo ([2]; week 20, fixed-dose group): 11 ms | Fractional shortening compared with placebo [2, 12]: increases | Left ventricular end-diastolic and end-systolic volumes compared with placebo [2, 12]: reductions | NT-proBNP concentration in plasma, least square mean difference versus placebo [2, 12]: -970 pg/mL | Stroke volume, least square mean difference versus placebo [2, 12]: 3.6 mL and 4 mL | Systolic ejection time, least square mean difference versus placebo [2, 12]: 25 ms | Frequencies of adverse events, serious adverse events and deaths across groups (versus placebo) ([3]; 20 weeks of treatment): did not differ; also recorded: similar | Adjudicated clinical events: Cardiovascular death, % ([3]; fixed-dose OM group (n = 150)): (1%) | Adjudicated clinical events: Cardiovascular death, number ([3]; fixed-dose OM group (n = 150)): 1 | Adjudicated clinical events: Death, % ([3]; fixed-dose OM group (n = 150)): (1%) | Adjudicated clinical events: Death, number ([3]; fixed-dose OM group (n = 150)): 1 | Adjudicated clinical events: Hospital admission: Chest paint†, % ([3]; human, in vivo, 20 weeks): (1%) | Adjudicated clinical events: Hospital admission: Chest paint†, number ([3]; human, in vivo, 20 weeks): 2 | Adjudicated clinical events: Hospital admission: Myocardial infarction, % ([3]; human, in vivo, 20 weeks): (1%) | Adjudicated clinical events: Hospital admission: Myocardial infarction, number ([3]; human, in vivo, 20 weeks): 1 | Adjudicated clinical events: Hospital admission: Unstable angina, % ([3]; human, in vivo, 20 weeks): (1%) | Adjudicated clinical events: Total myocardial infarction**, % ([3]; human, in vivo, 20 weeks): (1%) | Serious adverse events: Acute cardiac failure, % ([3]; human, in vivo, 20 weeks): (2%) | Serious adverse events: Acute cardiac failure, number ([3]; human, in vivo, 20 weeks): 3 | Serious adverse events: Cardiac, % ([3]; human, in vivo, 20 weeks): (12%) | Serious adverse events: Congestive cardiac failure, % ([3]; human, in vivo, 20 weeks): (2%) | Serious adverse events: Congestive cardiac failure, number ([3]; human, in vivo, 20 weeks): 3 | Serious adverse events: Ventricular tachycardia, % ([3]; human, in vivo, 20 weeks): (1%) | Adjudicated clinical events: Hospital admission: Myocardial infarction, number ([3]; in vivo): 0 | Cardiac troponin | concentrations: Change to Week 24 ([3]; in vivo): 0 ng/mL | Share of maximum cardiac troponin I increases from baseline that were less than 0·1 ng/mL ([3]; in vivo): 92% | Share of maximum cardiac troponin I increases from baseline that were less than 0·2 ng/mL ([3]; in vivo): 97% | Time for plasma cardiac troponin I to return to baseline levels after discontinuing ([3]; in vivo): ≤ 4 weeks | Troponin-triggered potential adverse events deemed myocardial ischaemia or myocardial infarction on adjudication ([3]; in vivo): none | Adjudicated clinical events: Cardiovascular death, % [3, 13]: (1%) | Adjudicated clinical events: Cardiovascular death, number [3, 13]: 2 | Adjudicated clinical events: Death, % [3, 13]: (2%) | Adjudicated clinical events: Death, number [3, 13]: 3

— US12295952B2, “Methods of treating heart failure with cardiac sarcomere activators” (Amgen Inc., priority 2017, dated 2025)
